Test system: 379773-124-R-J2-PDC complex spheroids, viability % test/control
Assay: Anticancer human tumor 379773-124-R-J2-PDC patient-derived endometrial carcinoma cell line growth inhibition [CLK]
Details: for IC50: curve of first compound; for viability, T/C: stronger effect = lower value
Description: A high-throughput screen of multi-cell type tumor spheroids was designed to identify active combinations of […] and targeted small molecules. Complex spheroids include a stromal component modeled by human endothelial cells (HUVEC) and fibroblasts modeled by human mesenchymal stem cells (MSCs). The concentration ranges selected for each drug and investigational agent were based upon clinically achievable concentrations if the clinical Cmax of the agent was known.
Compounds. The drugs and investigational agents: cirtuvivint (SM08502; NSC835563), CC-671 (NSC850746), vemurafenib (NSC761431), tapotoclax (NSC804041), sotorasib (NSC818433), adagrasib (NSC831453), MRTX-1133 (NSC836407), BAY2416964 (NSC825713), copanlisib (NSC816437), inavolisib (NSC800729), abemaciclib (NSC768073), osimertinib (NSC779217), entinostat (NSC756642), eltanexor (KPT-8602, NSC794443), venetoclax (NSC766270), ceralasertib (NSC777638), bortezomib (NSC756655), olaparib (NSC753686), talazoparib (NSC767125), alisertib (NSC759677), peposertib (NSC802822), gemcitabine (NSC613327), 5-fluorouracil (NSC19893), SN-38 (NSC673596), oxaliplatin (NSC266046), paclitaxel (NSC125973), and doxorubicin (NSC123127), were obtained from the National Cancer Institute (NCI) Developmental Therapeutics Program Chemical Repository. The FDA-approved anticancer drug set is available from the Developmental Therapeutics Program at https://dtp.cancer.gov/organization/dscb/obtaining/available plates.htm. […] The stock solutions were prepared in dimethyl sulfoxide (DMSO, Sigma-Aldrich, St. Louis, MO, cat. D2650), except for the platinum complexes which were prepared in saline (Quality Biological, Gaithersburg, MD, cat. 114-055-101), at 800-fold the tested concentration and stored at -70 degrees C prior to their use. All drugs and investigational agents were tested over a range starting from a high concentration at or near the clinical Cmax and decreasing in half-log increments. If the clinical Cmax for an agent had not been determined, the highest concentration tested was 10 microM.
Cell Culture. All cells were maintained in an incubator at 37 degrees C and 5% CO2 with 95% humidity. The PDC lines were cultured according to standard operating procedures established by the NCI PDMR. Briefly, all PDCs were thawed and cultured in Matrigel-coated flasks prepared with a working solution of 1X Ham's F-12 nutrient mix, without supplementation (Invitrogen, Waltham, MA, cat. 11765054), 100 U/mL penicillin-streptomycin (Invitrogen, cat. 15140122), and 2.5% Matrigel (Corning Inc., Corning, NY, cat. 354248) for the first three passages. The 947758-054-R-J2-PDC line was cultured in 6B/Colon 1A media, which includes advanced DMEM/F-12 (Thermo Fisher Scientific, cat. 12634028), 10 mM HEPES (Thermo Fisher Scientific, cat. 15630080), 1X GlutaMAX supplement (Thermo Fisher Scientific, cat. 35050061), 0.1 mg/mL primocin (InvivoGen, cat. ant-pm-2), 10% defined fetal bovine serum, heat inactivated (HyClone Laboratories Inc., cat. SH30070.03HI), 1.25 mM N-Acetyl-L-cysteine (Sigma-Aldrich, cat. A9165), 10 mM nicotinamide (Sigma-Aldrich, cat. N0636), 1X B-27 supplement (Thermo Fisher Scientific, cat. 17504044), 1X N-2 supplement (Thermo Fisher Scientific, cat. 17502048), and 10 microM Y-27632 dihydrochloride (Tocris Bioscience, cat. 1254). The 876862-298-R-J1-PDC was cultured in 6E media, which includes all 6B/Colon 1A media components plus 50% L-WRN conditioned media (ATCC, cat. CRL-3276), 50 ng/mL recombinant human EGF recombinant protein (hEGF; Thermo Fisher Scientific, cat. PHG0311), 10 ng/mL recombinant human fibroblast growth factor 10 (hGFG-10; PeproTech, cat. 100-26), 1 ng/mL recombinant human fibroblast growth factor 2 (hFGF-2; PeproTech, cat. 100-18B), and 1 µM prostaglandin E2 (PGE2; Tocris, cat. 2296). The 227483-062-R1-J1-PDC line was cultured in Panc media, containing all 6E components except hFGF-2, with the addition of 500 nM SB-431542 (Selleckchem, cat. S1067) and 10 nM gastrin (Tocris, cat. 3006). […]

[1] = second compound 0.0316 µM, first compound 0.0316 µM
[2] = second compound 0.0316 µM, first compound 0.1 µM
[3] = second compound 0.0316 µM, first compound 0.316 µM
[4] = second compound 0.0316 µM, first compound 1 µM
[5] = second compound 0.0316 µM, first compound 3.16 µM
[6] = second compound 0.0316 µM, first compound 10 µM
[7] = second compound 0.1 µM, first compound 0.0316 µM
[8] = second compound 0.1 µM, first compound 0.1 µM
[9] = second compound 0.1 µM, first compound 0.316 µM
[10] = second compound 0.1 µM, first compound 1 µM
[11] = second compound 0.1 µM, first compound 3.16 µM
[12] = second compound 0.1 µM, first compound 10 µM
[13] = second compound 0.316 µM, first compound 0.0316 µM
[14] = second compound 0.316 µM, first compound 0.1 µM
[15] = second compound 0.316 µM, first compound 0.316 µM
[16] = second compound 0.316 µM, first compound 1 µM
[17] = second compound 0.316 µM, first compound 3.16 µM
[18] = second compound 0.316 µM, first compound 10 µM
[19] = second compound 1 µM, first compound 0.0316 µM
[20] = second compound 1 µM, first compound 0.1 µM
[21] = second compound 1 µM, first compound 0.316 µM
[22] = second compound 1 µM, first compound 1 µM
[23] = second compound 1 µM, first compound 3.16 µM
[24] = second compound 1 µM, first compound 10 µM
[25] = second compound 3.16 µM, first compound 0.0316 µM
[26] = second compound 3.16 µM, first compound 0.1 µM
[27] = second compound 3.16 µM, first compound 0.316 µM
[28] = second compound 3.16 µM, first compound 1 µM
[29] = second compound 3.16 µM, first compound 3.16 µM
[30] = second compound 3.16 µM, first compound 10 µM
[31] = second compound 10 µM, first compound 0.0316 µM
[32] = second compound 10 µM, first compound 0.1 µM
[33] = second compound 10 µM, first compound 0.316 µM
[34] = second compound 10 µM, first compound 1 µM
[35] = second compound 10 µM, first compound 3.16 µM
[36] = second compound 10 µM, first compound 10 µM
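Further: compound exposure lasted seven days before the viability readout.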
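Wherever viability, T/C is given: 100% = DMSO vehicle control wells.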

With `C=C(F)C(=O)N1CCN(c2nc(OCC3CCCN3C)nc3c2CCN(c2cccc4cccc(Cl)c24)C3)CC1CC#N` (centres undefined) + CN1CCN(c2cc(C(=O)Nc3cc4cc(-c5cnn(C)c5)ccc4cn3)ccn2)CC1 as the compound, how does the IC50 (second compound 0.0316 µM) read?
The IC50 was 4620 nM.

What about the IC50 (second compound 0.1 µM) of the same compound?
Its IC50 is 2700 nM.

And the IC50 (second compound 0.316 µM)?
The IC50 was under 31.6 nM.

What about the IC50 (second compound 1 µM) of the same compound?
Its IC50 is under 31.6 nM.

And the IC50 (second compound 3.16 µM)?
Its IC50 is under 31.6 nM.

What about the IC50 (second compound 10 µM) of the same compound?
The IC50 was under 31.6 nM.

And the viability, T/C [1]?
The viability, T/C was 87.9%.

What about the viability, T/C [2] of the same compound?
Its viability, T/C is 86%.

And the viability, T/C [3]?
The viability, T/C was 86%.

What about the viability, T/C [4] of the same compound?
The viability, T/C was 88.7%.

What about the viability, T/C [5] of the same compound?
The viability, T/C was 73.9%.

What about the viability, T/C [6] of the same compound?
Its viability, T/C is 1.28%.

And the viability, T/C [7]?
The viability, T/C was 85.8%.

And the viability, T/C [8]?
The viability, T/C was 72.8%.

And the viability, T/C [9]?
The viability, T/C was 90.9%.

What about the viability, T/C [10] of the same compound?
Its viability, T/C is 79.5%.

What about the viability, T/C [11] of the same compound?
Its viability, T/C is 45.3%.

And the viability, T/C [12]?
Its viability, T/C is 1%.

What about the viability, T/C [13] of the same compound?
The viability, T/C was 28.3%.

And the viability, T/C [14]?
Its viability, T/C is 36.7%.

And the viability, T/C [15]?
The viability, T/C was 31.8%.

What about the viability, T/C [16] of the same compound?
Its viability, T/C is 37.5%.

What about the viability, T/C [17] of the same compound?
The viability, T/C was 13.6%.

What about the viability, T/C [18] of the same compound?
Its viability, T/C is 0.93%.

And the viability, T/C [19]?
The viability, T/C was 0.49%.

And the viability, T/C [20]?
Its viability, T/C is 0.17%.

What about the viability, T/C [21] of the same compound?
The viability, T/C was 0.3%.

What about the viability, T/C [22] of the same compound?
The viability, T/C was 1.49%.

What about the viability, T/C [23] of the same compound?
Its viability, T/C is 0.88%.

What about the viability, T/C [24] of the same compound?
The viability, T/C was 0.75%.

And the viability, T/C [25]?
The viability, T/C was 1.35%.

And the viability, T/C [26]?
The viability, T/C was 0.14%.

What about the viability, T/C [27] of the same compound?
The viability, T/C was 2.05%.

And the viability, T/C [28]?
Its viability, T/C is 0.84%.

And the viability, T/C [29]?
The viability, T/C was 1.24%.

What about the viability, T/C [30] of the same compound?
Its viability, T/C is 0.11%.

What about the viability, T/C [31] of the same compound?
Its viability, T/C is 0.66%.

What about the viability, T/C [32] of the same compound?
The viability, T/C was 1.65%.

What about the viability, T/C [33] of the same compound?
Its viability, T/C is 0.21%.

And the viability, T/C [34]?
The viability, T/C was 0.22%.

And the viability, T/C [35]?
The viability, T/C was 0.2%.

What about the viability, T/C [36] of the same compound?
Its viability, T/C is 0.65%.

`C=CC(=O)N1CCN(c2nc(=O)n(-c3c(C)ccnc3C(C)C)c3nc(-c4c(O)cccc4F)c(F)cc23)C(C)C1` (centres undefined) + CN1CCN(c2cc(C(=O)Nc3cc4cc(-c5cnn(C)c5)ccc4cn3)ccn2)CC1 was tested. Which IC50 (second compound 0.0316 µM) did it give?
Its IC50 is over 10000 nM.

What about the IC50 (second compound 0.1 µM) of the same compound?
The IC50 was over 10000 nM.

What about the IC50 (second compound 0.316 µM) of the same compound?
Its IC50 is under 31.6 nM.

What about the IC50 (second compound 1 µM) of the same compound?
The IC50 was under 31.6 nM.

And the IC50 (second compound 3.16 µM)?
The IC50 was under 31.6 nM.

What about the IC50 (second compound 10 µM) of the same compound?
The IC50 was under 31.6 nM.

And the viability, T/C [1]?
Its viability, T/C is 105%.

And the viability, T/C [2]?
Its viability, T/C is 92.5%.

What about the viability, T/C [3] of the same compound?
The viability, T/C was 91.2%.

And the viability, T/C [4]?
Its viability, T/C is 94.4%.

What about the viability, T/C [5] of the same compound?
The viability, T/C was 84.6%.

What about the viability, T/C [6] of the same compound?
Its viability, T/C is 75.2%.

And the viability, T/C [7]?
The viability, T/C was 85.5%.

What about the viability, T/C [8] of the same compound?
Its viability, T/C is 79.2%.

And the viability, T/C [9]?
The viability, T/C was 72.5%.

And the viability, T/C [10]?
The viability, T/C was 88.1%.

And the viability, T/C [11]?
Its viability, T/C is 84.2%.

What about the viability, T/C [12] of the same compound?
Its viability, T/C is 62.5%.

What about the viability, T/C [13] of the same compound?
The viability, T/C was 29.6%.

What about the viability, T/C [14] of the same compound?
The viability, T/C was 32.8%.

And the viability, T/C [15]?
Its viability, T/C is 29.3%.

And the viability, T/C [16]?
Its viability, T/C is 29.2%.

What about the viability, T/C [17] of the same compound?
Its viability, T/C is 38.5%.

What about the viability, T/C [18] of the same compound?
Its viability, T/C is 13.2%.

And the viability, T/C [19]?
The viability, T/C was 0.15%.

And the viability, T/C [20]?
Its viability, T/C is 3.06%.

And the viability, T/C [21]?
Its viability, T/C is 0.25%.

And the viability, T/C [22]?
The viability, T/C was 1.12%.

What about the viability, T/C [23] of the same compound?
Its viability, T/C is 1.01%.

What about the viability, T/C [24] of the same compound?
The viability, T/C was 0.17%.

And the viability, T/C [25]?
The viability, T/C was 0.18%.

And the viability, T/C [26]?
Its viability, T/C is 0.13%.

And the viability, T/C [27]?
Its viability, T/C is 0.13%.

And the viability, T/C [28]?
The viability, T/C was 0.34%.

And the viability, T/C [29]?
Its viability, T/C is 1.33%.

And the viability, T/C [30]?
The viability, T/C was 1.3%.

What about the viability, T/C [31] of the same compound?
Its viability, T/C is 0.12%.

What about the viability, T/C [32] of the same compound?
The viability, T/C was 0.54%.

What about the viability, T/C [33] of the same compound?
Its viability, T/C is 1.42%.

What about the viability, T/C [34] of the same compound?
The viability, T/C was 0.17%.

And the viability, T/C [35]?
The viability, T/C was 1.04%.

And the viability, T/C [36]?
Its viability, T/C is 0.5%.

Source: PubChem BioAssay AID2060604 (Molecular Pharmacology Branch, DTP, NCI, 2025)
